Laboratory results: patent US9540343B2 (Gilead Sciences, Inc., priority 2011, dated 2017)

Key:
HIV-IIIb = assay: Test A: Antiviral assay in MT4 cells; assay type: cell-based, HIV-1; details: MT-4 cells infected with HIV-IIIb, 5 days, CellTiter-Glo; for inhibition at 2 µM: Human immunodeficiency virus 1, IIIB, MT4, 120 h, read-out: % inhibition at 2 μM, percent inhibition of virus-induced cell killing, from dose response curve at 2 uM drug
in vitro = assay: in vitro
Summary of the method: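 Cytoprotection read-out: CellTiter-Glo chemiluminescence after 5 days at 37 °C of HIV-IIIb-infected MT-4 cells (m.o.i. 0.003) with compound in 10-point 3-fold dilutions, quadruplicate, 10% FBS. Cytotoxicity (CC50) measured identically without virus.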

[1] = human, uninfected MT-4 cells, CC50 (nM), same protocol as Test A, CellTiter-Glo

Structure (SMILES)	inhibition at 2 µM (HIV-IIIb) [%]	CC50 at 5 days (in vitro; [1]) [nM]	% inhibition at 2 μM (HIV-IIIb; percent inhibition of virus-induced cell killing, from dose response curve at 2 uM drug) [%]	CC50 at 5 days (in vitro; human, CC50 (nM), uninfected MT-4 cells, same protocol as Test A, CellTiter-Glo) [nM]
Cc1cc2ccn(CC(=O)N[C@@H](Cc3cc(F)cc(F)c3)c3ncccc3-c3ccc(F)c(C(N)=O)c3)c2cc1C [Example 498F, (S)-5-(2-(2-(3,5-difluorophenyl)-1-(2-(5,6-dimethyl-1H-indol-1-yl)acetamido)ethyl)pyridin-3-yl)-2-fluorobenzamide]	60	13200		
CCC(C(=O)N[C@@H](Cc1cc(F)cc(F)c1)c1ncccc1-c1ccc(F)c(C(N)=O)c1)n1cc(C(C)=O)c2ccccc21 (stereo partly drawn) [Example 543, 5-(2-((1S)-1-(2-(3-acetyl-1H-indol-1-yl)butanamido)-2-(3,5-difluorophenyl)ethyl)pyridin-3-yl)-2-fluorobenzamide]			4	44000
NC(=O)c1cccc(-c2cccnc2[C@H](Cc2cc(F)cc(F)c2)NC(=O)Cn2ncc3ccccc32)c1 [Example 108, (S)-3-(2-(1-(2-(1H-indazol-1-yl)acetamido)-2-(3,5-difluorophenyl)ethyl)pyridin-3-yl)benzamide]	13	> 53000		
NC(=O)c1cc(-c2cccnc2[C@H](Cc2cc(F)cc(F)c2)NC(=O)C2(c3ccccc3)CC2)ccc1F [Example 477, (S)-5-(2-(2-(3,5-difluorophenyl)-1-(1-phenylcyclopropanecarboxamido)ethyl)pyridin-3-yl)-2-fluorobenzamide]	0	21400		
O=C(Cn1nc(C(F)F)c2c1C(F)(F)C1CC21)N[C@@H](Cc1cc(F)cc(F)c1)c1ncccc1-c1cnc2cc[nH]c2c1 (stereo partly drawn) [Example 77, (S)—N-(1-(3-(1H-pyrrolo[3,2-b]pyridine-6-yl)-pyridin-2-yl)-2-(3,5-difluorophenyl)ethyl)-2-(3-(difluoromethyl)-5,6-dihydro-4,5-(methano)-6,6-difluoro-cyclopenta[c]pyrazol-1(4H)-yl)acetamide]	65	12400		
NC(=O)c1cc(-c2cccnc2[C@H](Cc2cc(F)cc(F)c2)NC(=O)Cn2cc(C3CC3)c(C(F)(F)F)n2)ccc1F [Example 276, (S)-5-(2-(1-(2-(4-cyclopropyl-3-(trifluoromethyl)-1H-pyrazol-1-yl)acetamido)-2-(3,5-difluorophenyl)ethyl)pyridin-3-yl)-2-fluorobenzamide]	29	16900		
COc1ccc(-c2cccnc2[C@H](Cc2ccccc2)NC(=O)Cc2c[nH]c3ccc(O)cc23)cc1 [Example 20, (S)-2-(5-hydroxy-1H-indol-3-yl)-N-(1-(3-(4-methoxyphenyl)pyridin-2-yl)-2-phenylethyl)acetamide]	84	48300		
NC(=O)c1cc(-c2cccnc2[C@H](Cc2cc(F)cc(F)c2)NC(=O)Cn2c(=O)n(C3=CCCCC3)c3ccccc32)ccc1F [Example 567, (S)-5-(2-(1-(2-(3-cyclohexenyl-2-oxo-2,3-dihydro-1H-benzo[d]imidazol-1-yl)acetamido)-2-(3,5-difluorophenyl)ethyl)pyridin-3-yl)-2-fluorobenzamide]	11	15800		
Cc1ccc(-c2cccnc2[C@H](Cc2cc(F)cc(F)c2)NC(=O)Cc2c[nH]c3ccc(F)cc23)cc1 [Example 69, (S)—N-(2-(3,5-difluorophenyl)-1-(3-p-tolylpyridin-2-yl)ethyl)-2-(5-fluoro-1H-indol-3-yl)acetamide]	84	6690		
NC(=O)c1cc(-c2cccnc2[C@H](Cc2cc(F)cc(F)c2)NC(=O)Cn2ncc3c2CCCC3)ccc1F [Example 471, (S)-5-(2-(2-(3,5-difluorophenyl)-1-(2-(4,5,6,7-tetrahydro-1H-indazol-1-yl)acetamido)ethyl)pyridin-3-yl)-2-fluorobenzamide]	62	> 53200		
CCc1c(C2CC2)c(C(F)(F)F)nn1CC(=O)N[C@@H](Cc1cc(F)cc(F)c1)c1ncccc1-c1ccc(F)c(C(N)=O)c1 [Example 343, (S)-5-(2-(1-(2-(4-cyclopropyl-5-ethyl-3-(trifluoromethyl)-1H-pyrazol-1-yl)acetamido)-2-(3,5-difluorophenyl)ethyl)pyridin-3-yl)-2-fluorobenzamide]	62	15500		
NCc1ccc2c(CC(=O)N[C@@H](Cc3cc(F)cc(F)c3)c3ncccc3-c3cccc(C(N)=O)c3)c[nH]c2c1 [Example 584, (S)-3-(2-(1-(2-(6-(aminomethyl)-1H-indol-3-yl)acetamido)-2-(3,5-difluorophenyl)ethyl)pyridin-3-yl)benzamide]	93	7250		
CC(C)(C)NC(=O)c1cc(-c2cccnc2[C@H](Cc2cc(F)cc(F)c2)NC(=O)Cc2c[nH]c3ccc(F)cc23)ccc1F [Example 417, (S)—N-tert-butyl-5-(2-(2-(3,5-difluorophenyl)-1-(2-(5-fluoro-1H-indol-3-yl)acetamido)ethyl)pyridin-3-yl)-2-fluorobenzamide]	8	12800		
Cc1cc2ncn(CC(=O)NC(Cc3cc(F)cc(F)c3)c3nccnc3-c3ccc(Cl)cc3)c2cc1C (centres unmarked) [Example 475, N-(1-(3-(4-chlorophenyl)pyrazin-2-yl)-2-(3,5-difluorophenyl)ethyl)-2-(5,6-dimethyl-1H-benzo[d]imidazol-1-yl)acetamide]	23	20400		
NC(=O)c1cc(-c2cccnc2[C@H](Cc2cccc(F)c2)NC(=O)Cn2nc(C(F)(F)F)c3c2CCS(=O)(=O)C3)ccc1F [Example 204, (S)-5-(2-(1-(2-(5,5-dioxido-3-(trifluoromethyl)-6,7-dihydrothiopyrano[4,3-c]pyrazol-1(4H)-yl)acetamido)-2-(3-fluorophenyl)ethyl)pyridin-3-yl)-2-fluorobenzamide]	1	> 53200		
O=C(Cc1c[nH]c2ccc(F)cc12)N[C@@H](Cc1cc(F)cc(F)c1)c1ncccc1-c1ccc(N2CCCC2)nc1 [Example 101, (S)—N-(2-(3,5-difluorophenyl)-1-(6′-(pyrrolidin-1-yl)-3,3′-bipyridin-2-yl)ethyl)-2-(5-fluoro-1H-indol-3-yl)acetamide]	29	12600		
O=C(Cc1c[nH]c2ccc(F)cc12)N[C@@H](Cc1cc(F)cc(F)c1)c1ncccc1-c1ccc(-c2ccccc2)cc1 [Example 416, (S)—N-(1-(3-(biphenyl-4-yl)pyridin-2-yl)-2-(3,5-difluorophenyl)ethyl)-2-(5-fluoro-1H-indol-3-yl)acetamide]	0	10300		
Cc1cc2ncn(CC(=O)N[C@H](Cc3cc(F)cc(F)c3)c3ncncc3-c3ccc(Cl)cc3)c2cc1C [Example 279G, (R)—N-(1-(5-(4-chlorophenyl)pyrimidin-4-yl)-2-(3,5-difluorophenyl)ethyl)-2-(5,6-dimethyl-1H-benzo[d]imidazol-1-yl)acetamide]	82	9300		
O=C(Cn1nc(C(F)F)c2c1C(F)(F)C1CC21)N[C@@H](Cc1cc(F)cc(F)c1)c1ncccc1-c1cnc2c(c1)CCCN2 (stereo partly drawn) [Example 442, (S)—N-(1-(3-(5,6,7,8-tetrahydro-1,8-naphthyridin-3-yl)-pyridin-2-yl)-2-(3,5-difluorophenyl)ethyl)-2-(3-(difluoromethyl)-5,6-dihydro-4,5-(methano)-6,6-difluoro-cyclopenta[c]pyrazol-1(4H)-yl)acetamide]	79	8880		
